# Columns and labels:
# Experiment in all cases: Post-emergence test, weed control effect
# Assay type in all cases: in vivo
# Veronica polita = details: after 3 weeks; for weed control effect, Veronica polita (activity level): Dose 3000 g/ha
# Method in brief: (§1)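 Weeds grown from seed in soil-filled pots in a greenhouse were sprayed at the 2-3 leaf stage, 2-3 weeks after sowing, with compound in acetone/Tween-80/water plus 80% vegetable oil methyl ester synergist at 1500 g/ha. Fresh-weight inhibition was scored on a 0-10 scale after 3 weeks.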
# Chenopodiaceae = details: after 3 weeks; for weed control effect, Chenopodiaceae (activity level): Dose 3000 g/ha
# Method in brief: as §1
# Amaranthus retroflexus = details: after 3 weeks; for weed control effect, Amaranthus retroflexus (activity level): Dose 3000 g/ha
# Method in brief: as §1
# Rorippa indica = details: after 3 weeks; for weed control effect, Rorippa indica (activity level): Dose 3000 g/ha
# Method in brief: as §1
Compound,"weed control effect (activity level), Veronica polita (Veronica polita; dose 1000 g/ha)","weed control effect (activity level), Chenopodiaceae (Chenopodiaceae; dose 1000 g/ha)","weed control effect (activity level), Amaranthus retroflexus (Amaranthus retroflexus; dose 1000 g/ha)","weed control effect (activity level), Rorippa indica (Rorippa indica; dose 1000 g/ha)",further results
O=C(COc1cc(C(F)(F)F)nnc1-c1ccc(F)cc1)c1ccccc1 [Compound 1-212],,,,,"weed control effect, Veronica polita (activity level) (Veronica polita): 10; weed control effect, Chenopodiaceae (activity level) (Chenopodiaceae): 10; weed control effect, Amaranthus retroflexus (activity level) (Amaranthus retroflexus): 10; weed control effect, Rorippa indica (activity level) (Rorippa indica): 10"
O=C(COc1cc(C(F)(F)F)nnc1-c1ccc(F)c(F)c1)c1ccccc1 [Compound 1-213],,,,,"weed control effect, Veronica polita (activity level) (Veronica polita): 10; weed control effect, Chenopodiaceae (activity level) (Chenopodiaceae): 10; weed control effect, Amaranthus retroflexus (activity level) (Amaranthus retroflexus): 10; weed control effect, Rorippa indica (activity level) (Rorippa indica): 10"
CC(C)OC(=O)OC(C)Oc1cc(C(F)(F)F)nnc1-c1ccccc1 (stereo not shown) [Compound 1-240],,,,,"weed control effect, Veronica polita (activity level) (Veronica polita): 10; weed control effect, Chenopodiaceae (activity level) (Chenopodiaceae): 10; weed control effect, Amaranthus retroflexus (activity level) (Amaranthus retroflexus): 10; weed control effect, Rorippa indica (activity level) (Rorippa indica): 10"
Cc1ccc(-c2nnc(C(F)(F)F)cc2O)cc1 [Compound 4],,,,,"weed control effect (activity level), Veronica polita (Veronica polita; dose 2000 g/ha): 10; weed control effect (activity level), Chenopodiaceae (Chenopodiaceae; dose 2000 g/ha): 8 (Level 8: above 80% growth inhibition rate); weed control effect (activity level), Amaranthus retroflexus (Amaranthus retroflexus; dose 2000 g/ha): 10; weed control effect (activity level), Rorippa indica (Rorippa indica; dose 2000 g/ha): 10"
CC(C)c1ccc(-c2nnc(C(F)(F)F)cc2O)cc1 [Compound 8],,,,,"weed control effect (activity level), Veronica polita (Veronica polita; dose 2000 g/ha): 10; weed control effect (activity level), Chenopodiaceae (Chenopodiaceae; dose 2000 g/ha): 8 (Level 8: above 80% growth inhibition rate); weed control effect (activity level), Amaranthus retroflexus (Amaranthus retroflexus; dose 2000 g/ha): 10; weed control effect (activity level), Rorippa indica (Rorippa indica; dose 2000 g/ha): 10"
Oc1cc(C(F)(F)F)nnc1-c1ccc(C2CC2)cc1 [Compound 24],,,,,"weed control effect (activity level), Veronica polita (Veronica polita; dose 2000 g/ha): 10; weed control effect (activity level), Chenopodiaceae (Chenopodiaceae; dose 2000 g/ha): 10; weed control effect (activity level), Amaranthus retroflexus (Amaranthus retroflexus; dose 2000 g/ha): 10; weed control effect (activity level), Rorippa indica (Rorippa indica; dose 2000 g/ha): 10"
Oc1cc(C(F)(F)F)nnc1-c1ccccc1F [Compound 26],10,10,10,10,
Oc1cc(C(F)(F)F)nnc1-c1cccc(Cl)c1 [Compound 27],10,10,10,10,
Oc1cc(C(F)(F)F)nnc1-c1ccc(Br)cc1 [Compound 28],10,10,10,10,
Oc1cc(C(F)(F)F)nnc1-c1cccc(I)c1 [Compound 29],10,10,10,10,
Oc1cc(C(F)(F)F)nnc1-c1ccccc1Cl [Compound 30],10,10,10,10,
Oc1cc(C(F)(F)F)nnc1-c1cccc(Br)c1 [Compound 31],10,10,10,10,
Oc1cc(C(F)(F)F)nnc1-c1ccc(I)cc1 [Compound 33],10,10,10,10,
Oc1cc(C(F)(F)F)nnc1-c1cc(F)ccc1F [Compound 34],10,10,10,10,
Oc1cc(C(F)(F)F)nnc1-c1c(F)cccc1F [Compound 36],10,10,10,10,
Oc1cc(C(F)(F)F)nnc1-c1cc(Cl)ccc1Cl [Compound 37],10,10,10,10,

Compound,"weed control effect (activity level), Veronica polita (Veronica polita; dose 1000 g/ha)","weed control effect (activity level), Chenopodiaceae (Chenopodiaceae; dose 1000 g/ha)","weed control effect (activity level), Amaranthus retroflexus (Amaranthus retroflexus; dose 1000 g/ha)","weed control effect (activity level), Rorippa indica (Rorippa indica; dose 1000 g/ha)",further results
Oc1cc(C(F)(F)F)nnc1-c1ccc(Cl)c(Cl)c1 [Compound 38],10,10,10,10,
Oc1cc(C(F)(F)F)nnc1-c1ccc(Cl)cc1Cl [Compound 39],10,10,10,10,
Oc1cc(C(F)(F)F)nnc1-c1cc(Cl)cc(Cl)c1 [Compound 40],10,10,10,10,
Oc1cc(C(F)(F)F)nnc1-c1c(Cl)cccc1Cl [Compound 41],10,10,10,10,
Oc1cc(C(F)(F)F)nnc1-c1cccc(Cl)c1Cl [Compound 42],10,10,10,10,
Oc1cc(C(F)(F)F)nnc1-c1ccc(F)cc1Cl [Compound 44],10,10,10,10,
Oc1cc(C(F)(F)F)nnc1-c1cccc(Cl)c1F [Compound 45],10,10,10,10,
Oc1cc(C(F)(F)F)nnc1-c1cc(F)cc(Cl)c1 [Compound 46],10,10,10,10,
Oc1cc(C(F)(F)F)nnc1-c1c(F)cccc1Br [Compound 47],10,10,10,10,
Oc1cc(C(F)(F)F)nnc1-c1cccc(Br)c1F [Compound 48],10,10,10,10,
Oc1cc(C(F)(F)F)nnc1-c1cc(F)cc(Br)c1 [Compound 49],10,10,10,10,
Oc1cc(C(F)(F)F)nnc1-c1cc(C(F)(F)F)ccc1F [Compound 50],10,10,10,10,
Oc1cc(C(F)(F)F)nnc1-c1c(F)cc(F)cc1F [Compound 52],10,10,10,10,
Oc1cc(C(F)(F)F)nnc1-c1cc(F)c(F)c(F)c1 [Compound 53],10,10,10,10,
Oc1cc(C(F)(F)F)nnc1-c1c(F)ccc(F)c1F [Compound 54],10,10,10,10,

# From patent US12568972B2, “Pyridazinol compounds and derivatives, preparation methods, herbicidal compositions and applications thereof” (Qingdao Kingagroot Chemical Compound Co., Ltd., priority 2018, dated 2026)
